Measured values reported in patent publication US20240300886A1, “ARYLCYCLOHEXYLAMINE DERIVATIVES AND THEIR USE IN THE TREATMENT OF PSYCHIATRIC DISORDERS” (GILGAMESH PHARMACEUTICALS, INC., priority 2021, published 2024).

Tests used:
[1] = Metabolic stability in dog liver microsomes (DLM); format: in vitro ADME, beagle dogs; details: for half-life at 1 μM / microsomal CLint at 1 μM: male, beagle, dog, pooled dog liver microsomes, pH 7.4, 1 μM compound, 0.50 mg protein/mL, NADPH
Method: (§1) DLM Stability. Pooled DLM from male beagle dogs (XenoTech D1000) were used. Microsomal incubations were carried out in multi-well plates. Liver microsomal incubation medium consisted of PBS (100 mM, pH 7.4), MgCl2 (1 mM), and NADPH (1 mM), with 0.50 mg of liver microsomal protein per mL. Control incubations were performed by replacing the NADPH-cofactor system with PBS. Test compounds (1 μM, final solvent concentration 1.0%) were incubated with microsomes at 37° C. with constant shaking. Six time points over 60 minutes were analyzed, with 60 μL aliquots of the reaction mixture being drawn at each time point. The reaction aliquots were stopped by adding 180 μL of cold (4° C.) acetonitrile containing 200 ng/mL tolbutamide and 200 ng/mL labetalol as internal standards (TS), followed by shaking for 10 minutes, and then protein sedimentation by centrifugation at 4,000 rpm for 20 minutes at 4° C. Supernatant samples (80 μL) were diluted with water (240 μL) and analyzed for parent compound remaining using a fit-for-purpose liquid chromatography-tandem mass spectrometry (LC-MS/MS) method.
(§2) Data Analysis. The elimination constant (kel), half-life (t1/2) and intrinsic clearance (Clint) were determined in a plot of […] versus time, using linear regression analysis.

[2] = target: serotonin transporter (SERT) (Homo sapiens (Human), UniProt P31645); assay: SERT fluorescent substrate uptake inhibition in transfected cells; format: cell-based; details: for inhibition at 10 µM: stably transfected cells expressing SERT; for ability to inhibit SERT uptake (in words): transfected cells, 10 μM
Method: The ability of disclosed compounds to inhibit uptake of monoamines by the serotonin transporter (SERT) was measured using a fluorescent substrate uptake assay in transfected cells (Table 15). […] Considering that inhibitors of SERT are well known to have antidepressant and anxiolytic effects and are among the most commonly prescribed drugs for mood disorders (e.g. fluoxetine, sertraline, etc.), blockade of SERT by certain compounds of the present disclosure is expected to synergize with their NMDAR inhibition to increase therapeutic activity for treating depression and related disorders. […] Further, the ability to tune the ratio between SERT and NMDAR is useful to obtain the optimal therapeutic profile depending on the intended clinical indication.
Uptake Inhibition. The ability of test compounds to block monoamine uptake by SERT was determined using the Neurotransmitter Transporter Uptake Assay Kit manufactured by Molecular Devices (Cat #R8173). Briefly, stably transfected cells expressing SERT were grown and plated into 384-well plates at a concentration of 20,000 cells per well. Plates were then incubated for 16-20 h at 37° C. and 5% CO2. The medium was then aspirated and replaced with 25 μL of assay buffer (20 mM HEPES in HBSS, containing 0.1% BSA) containing the test compounds at the appropriate concentrations. Plates were then centrifuged at 300 rpm for 15 s and then incubated at 37° C. for 30 minutes. At this time, 25 μL of the proprietary fluorescent dye solution was added, the plates were incubated at 37° C. for 60 minutes, and then fluorescence was quantified on a plate reader (excitation wavelength=440 nm, emission wavelength=520 nm). The proprietary dye solution contains a mixture of 1) a fluorescent dye that mimics the endogenous substrate of SERT and is thereby actively transported to the intracellular compartment in the absence of an inhibitor and 2) a masking dye that inhibits the fluorescence of dye 1 in the extracellular compartment. Therefore, the overall fluorescence of the system increases as the fluorescent dye is transported into the cells.

[3] = Metabolic stability in cynomolgus monkey liver microsomes (CLM); format: in vitro ADME, cynomolgus monkeys; details: for half-life at 1 μM / microsomal CLint at 1 μM: male, cynomolgus monkey, pooled cynomolgus monkey liver microsomes, pH 7.4, 1 μM compound, 0.50 mg protein/mL, NADPH
Method: as §1, with “CLM” for “DLM”, “cynomolgus monkeys (Corning 452413)” for “beagle dogs (XenoTech D1000)”, “(IS),” for “(TS),”
as §2

[4] = target: MK-801 binding site of the N-methyl-D-aspartate receptor (NMDAR); assay: NMDA receptor radioligand binding with [3H]MK-801; design: species or system Wistar rat; details: for Ki: [3H]MK-801 displacement, Wistar rat brain (minus cerebellum), read-out: NMDAR Ki (95% CI)
Method: The binding affinities of disclosed compounds at the MK-801 binding site of the N-methyl-D-aspartate receptor (NMDAR) were determined in radioligand binding experiments (Table 13).
Radioligand Binding. Affinity of the test compounds for NMDAR was determined in radioligand binding experiments with [^3H]MK-801 by Eurofins Panlabs, Inc., using methods adapted from the literature (Javitt el al. 1987; Reynolds et al. 1989) and under the conditions described in Table 14.

Row | Structure (SMILES) | half-life at 1 μM [1] | microsomal CLint at 1 μM [1] | inhibition at 10 µM [2] | half-life at 1 μM [3] | microsomal CLint at 1 μM [3] | Ki [4] | stability in CLM (in words) [3] | ability to inhibit SERT uptake (in words) [2] | NMDAR binding potency relative to enantiomer 2S (less potent) ([4]; MK-801 site of NMDAR) | stability in DLM (in words) [1]
1 | CNC1(c2ccccc2Cl)CCCCC1=O (racemic) [racemic ketamine, ketamine] | 2.4 min | 589 µL/min/mg | – | – | – | – | – | – | – | –
2 | N[C@@]1(c2ccc(F)cc2)CCCCC1=O [Compound 1R, (R)-2-amino-2-(4-fluorophenyl)cyclohexan-1-one] | – | – | 10.4% | – | – | – | – | – | – | –
3 | N[C@]1(c2ccc(F)cc2)CCCCC1=O [Compound 1S, (S)-2-amino-2-(4-fluorophenyl)cyclohexan-1-one] | > 145 min | < 9.6 µL/min/mg | 14.9% | > 145 min | < 9.6 µL/min/mg | 1700 nM | – | – | – | –
4 | CN[C@@]1(c2ccc(F)cc2)CCCCC1=O [Compound 2R, (R)-2-(4-fluorophenyl)-2(methylamino)cyclohexan-1-one] | 38.7 min | 35.8 µL/min/mg | 58.8% | 62.3 min | 22.2 µL/min/mg | 3300 nM | substantially more stable | substantial inhibitor, activity in the micromolar range | ~3 fold | substantially more stable
5 | CN[C@]1(c2ccc(F)cc2)CCCCC1=O [Compound 2S, (S)-2-(4-fluorophenyl)-2-(methylamino)cyclohexan-1-one] | 18.2 min | 76 µL/min/mg | 36.4% | 38.3 min | 36.1 µL/min/mg | 1200 nM | – | – | – | –
6 | N[C@]1(c2cccc(F)c2)CCCCC1=O [Compound 3S] | 51.7 min | 26.8 µL/min/mg | -0.21% | 83.7 min | 16.6 µL/min/mg | 1700 nM | – | inactive | – | –
